Test results published in ChEMBL document CHEMBL1127907, “Design of a potent 5-HT4 receptor agonist with nanomolar affinity” (Bioorg Med Chem Lett, 1994).

Experiments:
[1] = target: T1, 5-hydroxytryptamine receptor 4 (Cavia porcellus, UniProt O70528); assay: 5-hydroxytryptamine 4 receptor antagonist activity expressed as the concentration which produced a 50% reduction of 5-HT induced contraction in guinea pig ileum; Not evaluable; type: functional, tissue-based
[2] = target: T1, 5-hydroxytryptamine receptor 4; assay: 5-hydroxytryptamine 4 receptor agonist activity as increased response to electrical stimulation in guinea pig ileum; type: functional, tissue-based
[3] = target: T2, 5-hydroxytryptamine receptor 4 (Rattus norvegicus, UniProt Q62758); assay: Binding affinity against 5-hydroxytryptamine 4 receptor using [3H]GR-113808 as radioligand in rat striatum; type: tissue-based
T2 sequence (Q62758 whole entry): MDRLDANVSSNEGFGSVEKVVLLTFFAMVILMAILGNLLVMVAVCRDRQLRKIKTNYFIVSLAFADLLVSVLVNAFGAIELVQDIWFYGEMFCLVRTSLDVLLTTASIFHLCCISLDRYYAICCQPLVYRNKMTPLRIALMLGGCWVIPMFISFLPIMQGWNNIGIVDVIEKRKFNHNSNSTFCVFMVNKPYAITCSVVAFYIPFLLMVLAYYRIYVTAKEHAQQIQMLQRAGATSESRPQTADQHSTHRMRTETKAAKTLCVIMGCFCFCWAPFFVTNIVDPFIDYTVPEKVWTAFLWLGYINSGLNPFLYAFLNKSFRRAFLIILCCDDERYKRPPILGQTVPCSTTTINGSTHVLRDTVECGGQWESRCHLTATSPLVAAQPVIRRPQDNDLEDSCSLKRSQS

[4] = target: T3, Serotonin 3 (5-HT3) receptor (Rattus norvegicus, UniProt P35563+Q9JJ16); assay: Binding affinity against 5-hydroxytryptamine 3 receptor using [3H]BRL-43694 in rat posterior cortex; type: tissue-based
T3 sequence (P35563 whole entry): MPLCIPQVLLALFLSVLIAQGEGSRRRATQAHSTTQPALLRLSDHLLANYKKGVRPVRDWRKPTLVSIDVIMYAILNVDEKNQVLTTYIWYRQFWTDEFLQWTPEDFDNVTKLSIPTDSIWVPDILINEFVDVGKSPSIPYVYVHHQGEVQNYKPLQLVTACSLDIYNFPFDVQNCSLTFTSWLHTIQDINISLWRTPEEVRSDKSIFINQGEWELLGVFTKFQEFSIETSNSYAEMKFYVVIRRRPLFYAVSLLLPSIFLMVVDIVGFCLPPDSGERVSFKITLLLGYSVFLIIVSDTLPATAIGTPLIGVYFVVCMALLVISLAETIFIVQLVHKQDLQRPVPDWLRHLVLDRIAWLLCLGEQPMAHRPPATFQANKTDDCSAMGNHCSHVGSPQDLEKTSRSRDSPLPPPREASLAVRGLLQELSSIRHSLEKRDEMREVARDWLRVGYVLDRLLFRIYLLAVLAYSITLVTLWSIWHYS
T3 sequence (Q9JJ16 whole entry): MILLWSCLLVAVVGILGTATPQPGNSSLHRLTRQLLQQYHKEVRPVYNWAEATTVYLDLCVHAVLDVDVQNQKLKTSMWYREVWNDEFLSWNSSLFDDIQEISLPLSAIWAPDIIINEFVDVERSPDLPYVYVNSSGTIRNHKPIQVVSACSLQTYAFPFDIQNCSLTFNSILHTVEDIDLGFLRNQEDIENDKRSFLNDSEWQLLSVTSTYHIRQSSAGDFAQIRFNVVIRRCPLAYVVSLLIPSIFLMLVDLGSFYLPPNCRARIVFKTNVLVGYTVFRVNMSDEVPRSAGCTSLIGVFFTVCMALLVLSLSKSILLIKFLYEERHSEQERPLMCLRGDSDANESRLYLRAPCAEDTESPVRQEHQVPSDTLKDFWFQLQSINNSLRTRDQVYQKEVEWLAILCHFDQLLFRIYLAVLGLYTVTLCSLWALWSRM

[5] = target: 5-hydroxytryptamine receptor 4 (Cavia porcellus) (UniProt O70528); assay: 5-hydroxytryptamine 4 receptor agonist activity as percent maximum 5-HT effect in response to electrical stimulation in male guinea pig ileum; type: functional, tissue-based
Sequence of 5-hydroxytryptamine receptor 4 (Cavia porcellus) (O70528 whole entry): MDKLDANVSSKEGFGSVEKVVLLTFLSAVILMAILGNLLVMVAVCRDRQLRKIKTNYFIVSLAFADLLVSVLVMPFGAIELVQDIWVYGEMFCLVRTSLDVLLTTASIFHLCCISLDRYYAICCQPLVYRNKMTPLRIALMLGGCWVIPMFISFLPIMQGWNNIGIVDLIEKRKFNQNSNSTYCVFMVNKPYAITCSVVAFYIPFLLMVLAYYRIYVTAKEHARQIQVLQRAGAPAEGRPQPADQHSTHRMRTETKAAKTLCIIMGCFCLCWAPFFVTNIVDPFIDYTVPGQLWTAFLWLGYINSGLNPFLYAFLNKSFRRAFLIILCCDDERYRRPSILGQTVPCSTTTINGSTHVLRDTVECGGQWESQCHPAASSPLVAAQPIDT

[6] = target: T2, 5-hydroxytryptamine receptor 4; assay: 5-hydroxytryptamine 4 receptor agonist activity was determined by the relaxation of the carbachol-contracted rat esophageal tunica muscularis mucosae; type: functional
[7] = target: T1, 5-hydroxytryptamine receptor 4; assay: 5-hydroxytryptamine 4 receptor antagonist activity expressed as the concentration which produced a 50% reduction of 5-HT induced contraction in guinea pig ileum; type: functional, tissue-based

T1 sequence (O70528 whole entry): as above

Row | Structure (SMILES) | IC50 [1] [nM] | EC50 [2] [nM] | Ki [3] [nM] | Ki [4] [nM] | Activity [5] [%] | IC50 [6] [nM] | IC50 [7] [nM]
1 | CCN(CC)CCOC(=O)c1cc(Cl)c(N)cc1OC | 77 | > 1000 | 5.3 | 205 |  |  | 
2 | CCN1CCC(OC(=O)c2cc(Cl)c(N)cc2OC)CC1 |  | 22 | 10.3 | 118 | 60 |  | 
3 | CCN1CCCC(OC(=O)c2cc(Cl)c(N)cc2OC)C1 (centres undefined) |  | 44 | 34.5 |  | 79 |  | 
4 | COc1cc(N)c(Cl)cc1C(=O)OCCN1CCCCC1 |  |  | 1.07 | 782 | 80 | 2.4 | 
5 | NCCc1c[nH]c2ccc(O)cc12 |  |  |  |  | 100 |  | 
6 | COc1cc(N)c(Cl)cc1C(=O)NC1CN2CCC1CC2 (centres undefined) [ZACOPRIDE] |  | 260 | 753 | 0.7 |  |  | 
7 | COc1cc(N)c(Cl)cc1C(=O)OC1CC2CCC(C1)N2C (centres undefined) |  | 27 | 64.3 | 3.2 | 54 |  | 
8 | COc1cc(N)c(Cl)cc1C(=O)OC1CCN(C)CC1 |  | 110 | 23 | 72 | 53 |  | 60
9 | CCN(CC)CCNC(=O)c1cc(Cl)c(N)cc1OC [METOCLOPRAMIDE] |  |  |  | 443 |  |  | 
